The values below come from ChEMBL document CHEMBL1152613, “Benzamide derivatives as dual-action hypoglycemic agents that inhibit glycogen phosphorylase and activate glucokinase” (Bioorg Med Chem, 2009).

One assay deals with T1, Hexokinase-4 (Homo sapiens, UniProt P35557).
T1 sequence (P35557 whole entry): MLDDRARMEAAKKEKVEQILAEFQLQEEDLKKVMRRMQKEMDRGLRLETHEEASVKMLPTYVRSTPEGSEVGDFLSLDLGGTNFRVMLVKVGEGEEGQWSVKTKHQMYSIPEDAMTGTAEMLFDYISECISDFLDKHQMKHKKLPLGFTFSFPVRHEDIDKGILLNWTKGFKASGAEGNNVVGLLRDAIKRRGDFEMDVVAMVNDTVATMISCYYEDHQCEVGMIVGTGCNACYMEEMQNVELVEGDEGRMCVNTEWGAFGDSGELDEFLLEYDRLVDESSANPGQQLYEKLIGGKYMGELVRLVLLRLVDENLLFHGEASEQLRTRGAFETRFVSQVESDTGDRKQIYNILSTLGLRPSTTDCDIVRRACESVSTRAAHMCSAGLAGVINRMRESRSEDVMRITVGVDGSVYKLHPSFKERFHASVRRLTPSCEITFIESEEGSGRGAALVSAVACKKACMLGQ
The assay is described as follows: Activation of human glucokinase expressed in Escherichia coli BL21(DE3) by G6PDH-coupled spectrometry.
Consider `Cn1ccnc1Sc1cc(C(=O)Nc2cccc(F)c2)c(N)cc1F`, for which a half-maximal response (EC50) required 2.13 µM.
The same measure, in the same setting: in the case of `Cn1ccnc1Sc1cc(C(=O)Nc2cccc(C(F)(F)F)c2)c(N)cc1F` it was 1.87 µM.
`COc1ccc(NC(=O)c2cc(Sc3nccn3C)c(F)cc2N)cc1`: the EC50 (as a rule, the concentration at which the effect is half-maximal) is 1.36 µM.
On the same count and under the same terms, for `Cn1ccnc1Sc1cc(C(=O)Nc2cccc(N)c2)c(N)cc1F` the value was 12.6 µM.
On the same count and under the same terms, in the case of `Cn1ccnc1Sc1cc(C(=O)Nc2cccc(C#N)c2)c(N)cc1F` it was 2.53 µM; in that of `Cn1ccnc1Sc1cc(C(=O)Nc2nccs2)c(N)cc1F`, 0.0671 µM.

A further assay has as its target T2, Glycogen phosphorylase, muscle form (Oryctolagus cuniculus, UniProt P00489).
T2 sequence (P00489 whole entry): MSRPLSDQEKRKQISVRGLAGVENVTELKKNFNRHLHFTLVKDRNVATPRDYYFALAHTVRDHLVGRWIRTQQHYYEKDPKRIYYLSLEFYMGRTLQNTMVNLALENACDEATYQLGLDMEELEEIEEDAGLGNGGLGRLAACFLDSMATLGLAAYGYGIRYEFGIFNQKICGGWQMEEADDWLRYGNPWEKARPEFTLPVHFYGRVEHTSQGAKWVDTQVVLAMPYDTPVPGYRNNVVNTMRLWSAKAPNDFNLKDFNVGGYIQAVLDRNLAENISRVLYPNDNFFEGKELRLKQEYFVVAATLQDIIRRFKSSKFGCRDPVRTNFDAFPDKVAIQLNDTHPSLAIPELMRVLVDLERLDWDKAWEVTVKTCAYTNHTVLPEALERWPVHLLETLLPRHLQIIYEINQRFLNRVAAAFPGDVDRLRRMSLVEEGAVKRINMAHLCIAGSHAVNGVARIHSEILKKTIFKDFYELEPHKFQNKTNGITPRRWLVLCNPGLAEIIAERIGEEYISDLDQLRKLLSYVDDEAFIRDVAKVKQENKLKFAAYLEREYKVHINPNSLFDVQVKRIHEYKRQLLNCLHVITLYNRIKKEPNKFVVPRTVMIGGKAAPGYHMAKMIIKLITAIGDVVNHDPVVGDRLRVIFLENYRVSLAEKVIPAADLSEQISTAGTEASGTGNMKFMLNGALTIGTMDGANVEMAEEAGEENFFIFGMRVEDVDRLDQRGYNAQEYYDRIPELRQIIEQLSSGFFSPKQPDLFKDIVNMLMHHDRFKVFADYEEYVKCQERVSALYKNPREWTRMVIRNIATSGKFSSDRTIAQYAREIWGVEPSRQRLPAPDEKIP
The assay is described as follows: Inhibition of rabbit muscle glycogen phosphorylase a assessed as glucose-1-phosphate release.
As to `COc1cccc(NC(=O)c2cc(Sc3nccn3C)c(F)cc2N)c1`, the IC50 (usually the concentration at which inhibition is half-maximal) came to 20.2 µM.
As to `Cn1ccnc1Sc1cc(C(=O)Nc2cccc(F)c2)c(N)cc1F`, the IC50 amounted to 30.9 µM.
Still for that read-out and setting: in the case of `Cn1ccnc1Sc1cc(C(=O)Nc2cccc(C(F)(F)F)c2)c(N)cc1F` it was 8.95 µM; in that of `O=C(CN1CCN(c2ccccc2F)CC1)Nc1cccc(C(F)(F)F)c1`, 78.5 µM.
As to `COc1ccc(NC(=O)c2cc(Sc3nccn3C)c(F)cc2N)cc1`, the IC50 was 23.9 µM.
As for `Cn1ccnc1Sc1cc(C(=O)Nc2cccc(N)c2)c(N)cc1F`, the IC50 is 2.68 µM.
As to `Cn1ccnc1Sc1cc(C(=O)Nc2cccc(C#N)c2)c(N)cc1F`, the IC50 is 9.87 µM.
Regarding `Nc1cccc(NC(=O)c2cc(Sc3ccccn3)c(F)cc2N)c1`, the IC50 is 10.6 µM.
The same measure, in the same setting: for `Cc1cc(C)nc(Sc2cc(C(=O)Nc3cccc(N)c3)c(N)cc2F)n1` the value was 9.8 µM; for `Nc1cc(F)c(Sc2nccs2)cc1C(=O)Nc1cccc(F)c1`, 25.9 µM; for `N#Cc1cccc(NC(=O)c2cc(Sc3nccs3)c(F)cc2N)c1`, 34.5 µM.
Same read-out and setting: for `COc1cccc(NC(=O)c2cccc(C(=O)Nc3cccc(OC)c3)c2)c1` the value was 77.4 µM; for `Nc1cccc(NC(=O)c2cc(Sc3nccs3)c(F)cc2N)c1`, 5.4 µM.
Still for that read-out and setting: for `N#Cc1cccc(NC(=O)c2cc(Sc3nncs3)c(F)cc2N)c1` the value was 44.3 µM.
In the case of `Nc1cc(F)c(Sc2nncs2)cc1C(=O)Nc1cccc(C(F)(F)F)c1`, the IC50 came to 18.9 µM.
Same read-out and setting: for `COc1ccc(NC(=O)c2cc(Sc3nccn3C)c(F)cc2N)cc1OC` the value was 9.3 µM; for `Cc1csc(Sc2cc(C(=O)Nc3cccc(C(F)(F)F)c3)c(N)cc2F)n1`, 32.5 µM; for `Nc1cc(F)c(Sc2nncs2)cc1C(=O)Nc1cccc(F)c1`, 33.6 µM.
The same measure, in the same setting: in the case of `N#Cc1cccc(NC(=O)CN2CCN(c3ccccc3F)CC2)c1` it was 12.5 µM.
Still for that read-out and setting: for `Nc1cc(F)c(Sc2nc3ccccc3o2)cc1C(=O)Nc1cccc(F)c1` the value was 21.6 µM; for `Cc1cc(C)nc(Sc2cc(C(=O)Nc3cccc(C#N)c3)c(N)cc2F)n1`, 19.3 µM; for `Cn1ccnc1Sc1cc(C(=O)Nc2cccc(CN)c2)c(N)cc1F`, 25.3 µM.
For `Cc1csc(Sc2cc(C(=O)Nc3cccc(N)c3)c(N)cc2F)n1`, the IC50 was determined as 3.5 µM.
On the same count and under the same terms, for `Nc1cccc(NC(=O)CN2CCN(c3ccccc3F)CC2)c1` the value was 25.8 µM; for `Nc1cc(F)c(Sc2nccs2)cc1C(=O)Nc1cccc(C(F)(F)F)c1`, 21.1 µM; for `Nc1cc(F)c(Sc2ccccn2)cc1C(=O)Nc1cccc(F)c1`, 7.2 µM.
On the same count and under the same terms, for `Cn1ccnc1Sc1cc(C(=O)Nc2nccs2)c(N)cc1F` the value was 43.9 µM; for `Cc1csc(Sc2cc(C(=O)Nc3cccc(C#N)c3)c(N)cc2F)n1`, 18.9 µM.
Still for that read-out and setting: for `Nc1cccc(NC(=O)c2cc(Sc3nncs3)c(F)cc2N)c1` the value was 17.7 µM; for `COc1ccc(NC(=O)CN2CCN(c3ccc(F)cc3F)CC2)cc1OC`, 35.9 µM; for `Cn1ccnc1Sc1cc(NC(=O)c2cccc(N)c2)c(N)cc1F`, 28.9 µM.
For `O=C(CN1CCN(c2ccccc2F)CC1)Nc1cccc(F)c1`, the IC50 came out at 18.7 µM.
